Consider 16 compounds from US7074789B2, “Kinase inhibitors” (Amgen Inc., priority 1999, dated 2006).

pIC50: −log10 of the molar value. A value given as a limit tells only on which side of the number the result lay.

Holding throughout (type): biochemical
One assay addresses T1, Kdr (Homo sapiens, UniProt P35968).
T1 construct: Kinases are expressed as either kinase domains or full length constructs; made in house
In words: Kinase inhibition assay (33P transfer), Kdr. The settings on record: Table 3; for pIC50: read-out: KDR-1. A digest of the protocol:
(§1)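 Activity was read as 33P incorporation, counted by liquid scintillation after a 0.5% phosphoric acid wash, into poly(Glu,Tyr) 4:1 or poly(Arg,Ser) 3:1 substrates coated on plates. Enzymes were tagged (GST or polyHis) kinase domains or full-length proteins from bacterial or insect-cell expression, sometimes with regulatory polypeptides.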

For a further assay, the target named is T2, c-Met (Homo sapiens, UniProt P08581).
T2 construct: Kinases are expressed as either kinase domains or full length constructs; made in house
Kind of assay: Kinase inhibition assay (33P transfer), c-Met. The settings on record: Table 2, kinase inhibition class; for pIC50: read-out: Met-1. Put shortly:
(§2)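 Steps: coat wells with poly(Glu,Tyr) 4:1 or poly(Arg,Ser) 3:1; add purified kinase, [33P]ATP and inhibitor; incubate; wash with 0.5% phosphoric acid; add liquid scintillant; count. IC50 corresponds to half-maximal reduction of bound 33P.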

Another assay addresses T3, Lck (Homo sapiens, UniProt P06239).
T3 construct: Kinases are expressed as either kinase domains or full length constructs; made in house
Kind of assay: Kinase inhibition assay (33P transfer), Lck. The settings on record: Table 3; for pIC50: read-out: Lck-1. Put shortly:
as §1

The target in another assay is T4, Zap-70 (Homo sapiens, UniProt P43403).
T4 construct: Kinases are expressed as either kinase domains or full length constructs; made in house
T4 sequence (P43403 1-619): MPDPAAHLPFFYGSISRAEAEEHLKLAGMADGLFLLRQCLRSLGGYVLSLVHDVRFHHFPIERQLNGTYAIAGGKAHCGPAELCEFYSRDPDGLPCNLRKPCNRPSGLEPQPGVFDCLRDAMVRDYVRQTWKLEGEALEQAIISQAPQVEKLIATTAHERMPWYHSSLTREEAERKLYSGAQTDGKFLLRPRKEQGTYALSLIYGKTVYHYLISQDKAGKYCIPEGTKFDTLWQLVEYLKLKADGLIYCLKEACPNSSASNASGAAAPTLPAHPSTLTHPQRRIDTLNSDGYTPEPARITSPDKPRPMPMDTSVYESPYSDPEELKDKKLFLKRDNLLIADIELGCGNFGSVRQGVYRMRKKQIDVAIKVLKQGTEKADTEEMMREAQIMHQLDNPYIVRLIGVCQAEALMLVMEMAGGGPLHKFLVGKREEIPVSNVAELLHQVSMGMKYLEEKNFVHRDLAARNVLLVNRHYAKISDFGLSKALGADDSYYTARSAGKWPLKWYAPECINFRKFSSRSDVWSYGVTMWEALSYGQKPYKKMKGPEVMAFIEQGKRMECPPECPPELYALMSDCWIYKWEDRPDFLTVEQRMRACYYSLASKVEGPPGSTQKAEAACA
In words: Kinase inhibition assay (33P transfer), Zap-70. The conditions noted are these: Table 3; for pIC50: read-out: Zap-1. A digest of the protocol: as §1

The next assay deals with T5, Lyn (Homo sapiens, UniProt P07948).
T5 construct: Kinases are expressed as either kinase domains or full length constructs; made in house
Kind of assay: Kinase inhibition assay (33P transfer), Lyn. The conditions noted are these: Table 6, Lyn-1 kinase inhibition class. A digest of the protocol: as §2

The target in a further assay is T6, Hck-1 (Homo sapiens, UniProt P08631).
T6 construct: Kinases are expressed as either kinase domains or full length constructs; made in house
In words: Kinase inhibition assay (33P transfer), Hck. The conditions noted are these: Table 6, Hck-1 kinase inhibition class.

Another assay has as its target T7, AKT (Homo sapiens, UniProt Q9Y243).
T7 construct: Kinases are expressed as either kinase domains or full length constructs; made in house
In words: Kinase inhibition assay (33P transfer), AKT. The conditions noted are these: Table 2, kinase inhibition class; for pIC50: read-out: AKT3-1. Put shortly: as §1

In a further assay the target is T8, IGFR-1 (Homo sapiens, UniProt P08069).
T8 construct: Kinases are expressed as either kinase domains or full length constructs; made in house
T8 sequence (P08069 31-1367): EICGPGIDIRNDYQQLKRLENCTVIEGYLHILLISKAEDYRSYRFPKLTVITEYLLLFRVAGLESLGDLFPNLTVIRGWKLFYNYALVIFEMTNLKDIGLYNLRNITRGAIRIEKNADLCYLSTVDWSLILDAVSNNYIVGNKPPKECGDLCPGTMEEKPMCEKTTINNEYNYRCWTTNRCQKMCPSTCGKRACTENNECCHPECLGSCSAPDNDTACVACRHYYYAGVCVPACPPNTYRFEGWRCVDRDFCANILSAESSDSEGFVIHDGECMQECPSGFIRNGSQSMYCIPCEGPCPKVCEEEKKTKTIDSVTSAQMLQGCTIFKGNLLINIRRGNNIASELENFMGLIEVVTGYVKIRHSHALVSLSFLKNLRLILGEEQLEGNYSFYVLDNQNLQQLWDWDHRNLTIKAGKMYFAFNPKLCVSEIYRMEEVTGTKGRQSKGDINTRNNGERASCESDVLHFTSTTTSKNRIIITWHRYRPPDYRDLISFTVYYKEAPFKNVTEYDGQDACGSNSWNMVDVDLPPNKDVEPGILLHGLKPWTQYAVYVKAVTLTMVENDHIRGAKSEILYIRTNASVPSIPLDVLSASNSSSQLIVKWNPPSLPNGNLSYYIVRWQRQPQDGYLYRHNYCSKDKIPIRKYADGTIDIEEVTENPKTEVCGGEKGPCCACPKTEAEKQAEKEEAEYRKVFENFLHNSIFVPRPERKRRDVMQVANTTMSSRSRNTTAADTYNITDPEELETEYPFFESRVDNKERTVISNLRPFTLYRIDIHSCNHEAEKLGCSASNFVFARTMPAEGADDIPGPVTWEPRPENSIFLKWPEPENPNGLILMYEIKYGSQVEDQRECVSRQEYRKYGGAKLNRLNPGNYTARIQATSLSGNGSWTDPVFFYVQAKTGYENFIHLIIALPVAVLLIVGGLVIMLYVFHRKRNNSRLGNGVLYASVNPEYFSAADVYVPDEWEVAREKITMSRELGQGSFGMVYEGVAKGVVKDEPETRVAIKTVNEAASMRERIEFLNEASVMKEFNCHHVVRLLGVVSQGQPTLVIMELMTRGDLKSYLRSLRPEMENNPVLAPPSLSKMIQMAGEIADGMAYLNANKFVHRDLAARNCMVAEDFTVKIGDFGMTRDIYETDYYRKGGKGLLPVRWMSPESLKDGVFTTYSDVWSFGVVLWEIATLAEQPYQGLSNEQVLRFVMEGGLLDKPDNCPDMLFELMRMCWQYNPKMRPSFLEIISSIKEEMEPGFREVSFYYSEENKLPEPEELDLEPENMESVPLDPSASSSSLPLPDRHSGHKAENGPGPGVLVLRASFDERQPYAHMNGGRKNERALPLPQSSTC
In words: Kinase inhibition assay (33P transfer), IGFR-1. The settings on record: Table 2, kinase inhibition class.

The target of the next assay is T9, Flt-1 (Homo sapiens, UniProt P17948).
T9 construct: Kinases are expressed as either kinase domains or full length constructs; made in house
T9 sequence (P17948 27-1338, species assumed): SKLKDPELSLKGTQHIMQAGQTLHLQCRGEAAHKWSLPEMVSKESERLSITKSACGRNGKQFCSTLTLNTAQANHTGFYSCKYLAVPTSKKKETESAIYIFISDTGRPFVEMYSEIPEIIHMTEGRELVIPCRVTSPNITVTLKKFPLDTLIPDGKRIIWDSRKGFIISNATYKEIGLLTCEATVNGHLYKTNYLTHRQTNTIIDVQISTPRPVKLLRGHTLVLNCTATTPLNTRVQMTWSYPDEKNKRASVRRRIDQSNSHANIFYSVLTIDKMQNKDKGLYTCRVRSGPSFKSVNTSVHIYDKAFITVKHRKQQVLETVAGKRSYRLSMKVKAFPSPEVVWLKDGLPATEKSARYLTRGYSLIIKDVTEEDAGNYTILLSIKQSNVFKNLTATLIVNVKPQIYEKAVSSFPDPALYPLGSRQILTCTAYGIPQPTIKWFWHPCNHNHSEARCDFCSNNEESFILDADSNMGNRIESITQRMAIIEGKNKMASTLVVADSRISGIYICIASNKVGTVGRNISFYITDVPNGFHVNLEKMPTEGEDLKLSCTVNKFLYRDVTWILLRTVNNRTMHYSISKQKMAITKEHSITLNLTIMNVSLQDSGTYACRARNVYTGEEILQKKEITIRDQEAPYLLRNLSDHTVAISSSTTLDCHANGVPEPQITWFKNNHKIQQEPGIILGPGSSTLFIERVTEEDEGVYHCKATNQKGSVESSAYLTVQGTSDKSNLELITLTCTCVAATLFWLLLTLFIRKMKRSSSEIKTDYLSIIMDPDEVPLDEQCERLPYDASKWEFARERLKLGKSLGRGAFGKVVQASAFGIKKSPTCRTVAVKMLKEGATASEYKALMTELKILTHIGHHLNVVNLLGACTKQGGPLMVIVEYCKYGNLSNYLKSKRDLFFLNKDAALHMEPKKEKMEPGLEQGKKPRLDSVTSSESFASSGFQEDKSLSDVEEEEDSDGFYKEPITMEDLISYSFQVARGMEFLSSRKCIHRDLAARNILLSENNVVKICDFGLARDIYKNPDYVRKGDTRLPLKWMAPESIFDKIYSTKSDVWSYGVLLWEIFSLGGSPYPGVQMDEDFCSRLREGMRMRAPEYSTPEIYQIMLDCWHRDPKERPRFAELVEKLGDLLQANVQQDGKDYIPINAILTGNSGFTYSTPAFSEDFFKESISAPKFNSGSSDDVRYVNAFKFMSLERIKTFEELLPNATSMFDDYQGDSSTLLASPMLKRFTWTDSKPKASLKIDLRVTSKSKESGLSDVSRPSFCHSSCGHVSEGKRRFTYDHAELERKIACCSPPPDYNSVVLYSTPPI
Kind of assay: Kinase inhibition assay (33P transfer), Flt-1. Put shortly:
as §2

For the next assay, the target named is T10, FGFR1 (Homo sapiens, UniProt P11362).
T10 construct: Kinases are expressed as either kinase domains or full length constructs; made in house
T10 sequence (P11362 22-822, species assumed): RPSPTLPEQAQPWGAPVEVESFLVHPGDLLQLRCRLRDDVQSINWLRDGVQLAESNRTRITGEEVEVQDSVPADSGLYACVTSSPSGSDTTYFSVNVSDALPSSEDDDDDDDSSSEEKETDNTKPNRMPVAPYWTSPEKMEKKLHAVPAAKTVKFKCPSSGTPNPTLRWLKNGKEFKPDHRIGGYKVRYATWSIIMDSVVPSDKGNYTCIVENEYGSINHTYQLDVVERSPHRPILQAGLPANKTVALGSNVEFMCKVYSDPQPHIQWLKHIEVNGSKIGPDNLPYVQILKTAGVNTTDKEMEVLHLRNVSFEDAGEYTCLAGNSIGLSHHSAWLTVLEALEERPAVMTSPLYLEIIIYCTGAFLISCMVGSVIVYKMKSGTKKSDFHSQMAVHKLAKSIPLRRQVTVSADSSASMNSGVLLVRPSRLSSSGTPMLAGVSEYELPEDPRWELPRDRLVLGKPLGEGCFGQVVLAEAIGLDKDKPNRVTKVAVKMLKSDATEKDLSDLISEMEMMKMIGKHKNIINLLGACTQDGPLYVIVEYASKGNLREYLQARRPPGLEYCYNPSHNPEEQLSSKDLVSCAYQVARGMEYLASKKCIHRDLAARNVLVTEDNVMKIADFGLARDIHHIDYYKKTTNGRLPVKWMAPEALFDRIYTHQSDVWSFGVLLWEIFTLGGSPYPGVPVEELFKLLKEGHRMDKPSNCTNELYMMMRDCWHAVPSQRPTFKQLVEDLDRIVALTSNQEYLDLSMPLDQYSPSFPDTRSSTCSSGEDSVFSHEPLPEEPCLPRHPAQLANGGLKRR
In words: Kinase inhibition assay (33P transfer), FGFR1. The settings on record: read-out: FGFR1-1.

A further assay addresses T11, PDGFRB (Homo sapiens, UniProt P09619).
T11 construct: Kinases are expressed as either kinase domains or full length constructs; made in house
In words: Kinase inhibition assay (33P transfer), PDGFRB. The settings on record: read-out: PDGFRB-1.

The next assay addresses T12, ErbB2 (Homo sapiens, UniProt P04626).
T12 construct: Kinases are expressed as either kinase domains or full length constructs; made in house
In words: Kinase inhibition assay (33P transfer), ErbB2. The settings on record: read-out: ErbB2-2. Put shortly: as §2

T3 sequence (P06239 whole entry, species assumed, the tested form may be a part): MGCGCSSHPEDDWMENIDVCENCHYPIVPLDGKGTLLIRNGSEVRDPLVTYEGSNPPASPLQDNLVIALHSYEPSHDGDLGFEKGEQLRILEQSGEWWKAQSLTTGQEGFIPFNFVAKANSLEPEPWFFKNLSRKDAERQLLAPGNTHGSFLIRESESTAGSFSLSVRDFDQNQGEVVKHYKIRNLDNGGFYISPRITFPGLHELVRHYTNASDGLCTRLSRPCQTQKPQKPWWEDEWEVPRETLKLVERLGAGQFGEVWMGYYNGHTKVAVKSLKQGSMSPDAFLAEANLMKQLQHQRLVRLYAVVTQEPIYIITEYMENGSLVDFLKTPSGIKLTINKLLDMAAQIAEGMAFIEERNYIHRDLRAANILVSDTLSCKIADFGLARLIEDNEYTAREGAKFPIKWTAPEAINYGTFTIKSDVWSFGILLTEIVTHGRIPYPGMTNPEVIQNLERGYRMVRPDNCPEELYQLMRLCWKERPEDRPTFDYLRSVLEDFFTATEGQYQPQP
T11 sequence (P09619 33-1106, species assumed): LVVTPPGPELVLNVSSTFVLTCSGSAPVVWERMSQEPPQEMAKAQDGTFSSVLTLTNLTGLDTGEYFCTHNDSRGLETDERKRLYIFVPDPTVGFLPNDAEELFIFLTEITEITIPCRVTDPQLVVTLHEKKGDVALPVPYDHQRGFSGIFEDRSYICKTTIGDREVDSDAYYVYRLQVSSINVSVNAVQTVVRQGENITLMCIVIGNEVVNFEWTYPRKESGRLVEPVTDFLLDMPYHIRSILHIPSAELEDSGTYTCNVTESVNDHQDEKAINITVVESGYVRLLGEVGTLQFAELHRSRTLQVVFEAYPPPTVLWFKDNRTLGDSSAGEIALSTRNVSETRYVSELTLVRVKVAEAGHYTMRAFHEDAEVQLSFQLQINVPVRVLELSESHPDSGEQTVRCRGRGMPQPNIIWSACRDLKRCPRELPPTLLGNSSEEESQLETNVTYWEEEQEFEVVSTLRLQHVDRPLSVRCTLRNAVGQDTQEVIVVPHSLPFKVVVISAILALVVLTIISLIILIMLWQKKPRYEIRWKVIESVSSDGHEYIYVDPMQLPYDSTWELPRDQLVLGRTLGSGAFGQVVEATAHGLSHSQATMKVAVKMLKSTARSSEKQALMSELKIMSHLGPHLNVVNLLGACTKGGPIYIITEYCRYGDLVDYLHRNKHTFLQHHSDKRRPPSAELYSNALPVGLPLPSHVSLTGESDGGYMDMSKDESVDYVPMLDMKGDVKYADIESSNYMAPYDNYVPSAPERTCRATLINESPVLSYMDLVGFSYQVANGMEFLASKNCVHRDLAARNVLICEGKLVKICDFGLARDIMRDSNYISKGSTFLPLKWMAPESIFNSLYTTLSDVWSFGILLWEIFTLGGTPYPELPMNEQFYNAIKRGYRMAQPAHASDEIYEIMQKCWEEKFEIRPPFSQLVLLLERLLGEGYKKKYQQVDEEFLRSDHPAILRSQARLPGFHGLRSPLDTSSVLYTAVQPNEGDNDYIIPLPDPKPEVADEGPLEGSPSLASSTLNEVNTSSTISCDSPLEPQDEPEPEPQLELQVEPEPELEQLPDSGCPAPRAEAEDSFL

As to `COc1ccc(Nc2ncnc(Nc3cc(OC)c(OC)c(OC)c3)n2)cn1` [Compound 28], the KDR-1 result at Kdr was “A (A<0.4 ug/mL)”. The Met-1 result on c-Met is “E (E>4.5 ug/mL)”. At Lck, the Lck-1 entry was “B (B>0.4 and <2.4 ug/mL)”. The Zap-1 result at Zap-70 is listed as “E (E>4.5 ug/mL)”. At Lyn, the Lyn-1 entry was “B (B>0.4 and <2.4 ug/mL)”. Further, at Hck-1, the Hck-1 entry was “E (E>4.5 ug/mL)”. For the same compound, on AKT, the AKT3-1 entry is reported as “E (E>4.5 ug/mL)”. On IGFR-1, the IGFR-1 entry was “B (B>0.4 and <2.4 ug/mL)”.
On to `COc1ccc(Nc2ncnc(Nc3cc(OC)c(OC)c(OC)c3)n2)cc1OC` [Compound 36], for which the pIC50 at Flt-1 is above 6.01; at FGFR1, below 4.96; at Kdr, above 6.01; at c-Met, below 4.96; on Lck, 5.24 to 6.01; on Zap-70, below 4.96. The pIC50 on Lyn is below 4.96; at Hck-1, below 4.96; at AKT, below 4.96; at PDGFRB, above 6.01; on IGFR-1, below 4.96.
As to `COc1cc(Nc2ncnc(Nc3ccc(Br)cc3F)n2)cc(OC)c1OC` [Compound 41], the pIC50 against Flt-1 was 5.27 to 6.05; at FGFR1, 5.11 to 5.27; on Kdr it was above 6.05; at c-Met, 5.11 to 5.27; at Lck it was 5.11 to 5.27; on Zap-70, below 5.00. For the same compound, the pIC50 at Lyn was above 6.05; at Hck-1, below 5.00; on AKT, below 5.00; at PDGFRB it was 5.27 to 6.05; against IGFR-1, 5.27 to 6.05.
As to `COc1cc(Nc2ncnc(N(C/C=C/c3ccccc3)c3ccc(Cl)cc3)n2)cc(OC)c1OC` [Compound 56], the pIC50 was 5.16 to 5.32 on Flt-1; 5.16 to 5.32 on FGFR1; 5.32 to 6.10 at Kdr; below 5.05 at c-Met; 5.16 to 5.32 on Lck; below 5.05 on Zap-70. The pIC50 against Lyn was 5.32 to 6.10; against Hck-1, below 5.05; at AKT, below 5.05; at PDGFRB, below 5.05; at IGFR-1 it was 5.05 to 5.16.
Consider `COc1ccc(N(C)c2ncnc(Nc3cc(OC)c(OC)c(OC)c3)n2)cc1` [Compound 106], for which the pIC50 on Flt-1 is above 6.00; at FGFR1, 5.22 to 6.00; on Kdr, above 6.00; on c-Met, 5.22 to 6.00; on Lck, 5.06 to 5.22; at Zap-70, below 4.95. The pIC50 on AKT was below 4.95; at PDGFRB it was above 6.00; at IGFR-1, 5.06 to 5.22.
Regarding `Cc1cccc(Nc2ncnc(Nc3ccc(O)cc3)n2)c1` [Compound 107], the pIC50 on Flt-1 is above 5.87; at FGFR1, 5.09 to 5.87; on Kdr, 5.09 to 5.87; at c-Met, 4.92 to 5.09; at Lck, 5.09 to 5.87; on Zap-70 it was below 4.81. For the same compound, the pIC50 at Lyn is above 5.87; against Hck-1 it was 4.81 to 4.92; on AKT it was 5.09 to 5.87; on PDGFRB it was 5.09 to 5.87; against IGFR-1, 5.09 to 5.87.
Take `COc1ccc(Nc2ncnc(Nc3cccc(C)c3)n2)cc1OC` [Compound 108]: the pIC50 on Flt-1 was below 4.87; on FGFR1, 5.15 to 5.93; at Kdr it was 4.98 to 5.15; at c-Met, below 4.87; at Lck, 4.87 to 4.98; on Zap-70, below 4.87. Moreover, the pIC50 was above 5.93 at Lyn; below 4.87 on Hck-1; below 4.87 on AKT; 5.15 to 5.93 on PDGFRB; 4.98 to 5.15 against IGFR-1.
On to `Cc1cccc(Nc2ncnc(Nc3cccc(Br)c3)n2)c1` [Compound 109], for which the pIC50 at Kdr is 5.01 to 5.17; on ErbB2, 5.01 to 5.17; on c-Met, below 4.90; at Lck, below 4.90; on Zap-70 it was 5.01 to 5.17; at AKT, below 4.90. The pIC50 at PDGFRB and against IGFR-1 was below 4.90 each time.
On to `COc1ccc(Nc2ncnc(Nc3ccc(N(C)C)cc3)n2)cc1OC` [Compound 114], for which the pIC50 against Flt-1 is below 4.91; at FGFR1, below 4.91; at Kdr it was above 5.96; at c-Met it was below 4.91; at Lck, below 4.91; at Zap-70, below 4.91. For the same compound, the pIC50 at AKT is below 4.91; on PDGFRB it was below 4.91; on IGFR-1, 5.02 to 5.18.
`COc1ccc(Nc2ncnc(Nc3ccc4[nH]ccc4c3)n2)cc1OC` [Compound 115]: the pIC50 at Flt-1 is 5.18 to 5.96; on FGFR1, 5.02 to 5.18; on Kdr it was 5.18 to 5.96; on c-Met, below 4.91; on Lck, 5.18 to 5.96; at Zap-70, below 4.91. Further, the pIC50 was 5.02 to 5.18 at Lyn; below 4.91 at Hck-1; 5.18 to 5.96 at AKT; below 4.91 at PDGFRB; 5.18 to 5.96 on IGFR-1.
`C#Cc1cccc(Nc2ncnc(Nc3ccc(OC)c(OC)c3)n2)c1` [Compound 116]: the pIC50 is below 4.89 at Flt-1; below 4.89 at FGFR1; 5.00 to 5.16 at Kdr; below 4.89 on c-Met; 4.89 to 5.00 at Lck; below 4.89 on Zap-70. The pIC50 against Lyn was below 4.89; on Hck-1, below 4.89; on AKT, below 4.89; on PDGFRB it was below 4.89; on IGFR-1 it was 5.16 to 5.94.
For the compound `COc1ccc(Nc2ncnc(Nc3ccc(C)c(O)c3)n2)cc1OC` [Compound 119], the pIC50 is above 5.95 on Flt-1; 5.17 to 5.95 at FGFR1; above 5.95 at Kdr; below 4.90 on c-Met; 5.17 to 5.95 on Lck; below 4.90 on Zap-70. The pIC50 at Lyn was 5.17 to 5.95; on Hck-1, below 4.90; on AKT, below 4.90; at PDGFRB, above 5.95; on IGFR-1, 5.00 to 5.17.
As to `COc1cc(Nc2ncnc(N3CCCCC3)n2)cc(OC)c1OC` [Compound 207], the pIC50 is 5.16 to 5.94 on Flt-1; below 4.89 on FGFR1; 5.16 to 5.94 on Kdr; below 4.89 on c-Met; 4.89 to 4.99 at Lck; below 4.89 on Zap-70. For the same compound, the pIC50 on AKT, at PDGFRB and on IGFR-1 was below 4.89 each time.
Turning to `COc1cc(Nc2ncnc(Nc3cc(OC)c(OC)c(OC)c3)n2)cc(OC)n1` [Compound 253], the pIC50 was 5.24 to 6.02 on Kdr; below 4.96 at c-Met; 4.96 to 5.07 at Lck; below 4.96 at Zap-70; below 4.96 against Lyn; below 4.96 against Hck-1. Also, the pIC50 at AKT and at IGFR-1 was below 4.96 throughout.
Consider `COc1cc(Nc2ncnc(-n3c(Nc4ccccc4)nc4ccccc43)n2)cc(OC)c1OC` [Compound 336], for which the pIC50 against Flt-1 is above 6.07; at FGFR1, above 6.07; at c-Met, below 5.02; on Lck, 5.29 to 6.07; on Zap-70 it was below 5.02; at Lyn it was 5.29 to 6.07. In addition, the pIC50 against Hck-1 is below 5.02; on AKT it was below 5.02; on PDGFRB it was above 6.07; at IGFR-1, below 5.02.
On to `COc1ccc(Nc2ncnc(Nc3ccc(Oc4ccccc4)cc3)n2)cc1OC` [Compound 929], for which the pIC50 is below 4.97 at Flt-1; below 4.97 on FGFR1; 5.24 to 6.02 on Kdr; above 6.02 on c-Met; 5.24 to 6.02 on Lck; 5.07 to 5.24 at Zap-70. Moreover, the figures for the pIC50 on AKT, at PDGFRB and at IGFR-1 were below 4.97, below 4.97 and 4.97 to 5.07, respectively.
